Measurements: PMC5708334, “Synthesis of kinase inhibitors containing a pentafluorosulfanyl moiety” (Organic & Biomolecular Chemistry, 2017)

Experiments:
[1] = target: T1, DYRK3 (h) (Homo sapiens, UniProt O43781); assay: Biochemical kinase assay (CEREP); details: for IC50: 10 μM ATP, performed by CEREP
T1 sequence (O43781 1-588): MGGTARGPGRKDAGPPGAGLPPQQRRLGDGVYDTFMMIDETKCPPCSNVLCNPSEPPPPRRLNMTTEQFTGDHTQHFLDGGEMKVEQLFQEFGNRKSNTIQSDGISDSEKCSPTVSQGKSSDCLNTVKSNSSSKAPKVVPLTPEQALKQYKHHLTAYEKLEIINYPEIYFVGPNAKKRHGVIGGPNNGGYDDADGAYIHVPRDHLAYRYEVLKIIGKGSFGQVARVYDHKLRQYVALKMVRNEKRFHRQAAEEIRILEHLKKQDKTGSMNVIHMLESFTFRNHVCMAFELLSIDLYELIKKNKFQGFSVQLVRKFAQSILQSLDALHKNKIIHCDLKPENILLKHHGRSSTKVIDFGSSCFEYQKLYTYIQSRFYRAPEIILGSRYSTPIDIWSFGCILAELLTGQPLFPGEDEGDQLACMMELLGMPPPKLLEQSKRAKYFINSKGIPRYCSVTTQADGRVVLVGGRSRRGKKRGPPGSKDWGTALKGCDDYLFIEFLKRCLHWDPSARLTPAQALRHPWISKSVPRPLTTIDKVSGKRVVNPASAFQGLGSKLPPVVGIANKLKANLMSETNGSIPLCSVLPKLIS

[2] = target: PDGFRα (h) (Homo sapiens, UniProt P16234); assay: Biochemical kinase assay (CEREP); details: for IC50: 10 μM ATP, performed by CEREP
Chain of PDGFRα (h) (P16234 24-1089): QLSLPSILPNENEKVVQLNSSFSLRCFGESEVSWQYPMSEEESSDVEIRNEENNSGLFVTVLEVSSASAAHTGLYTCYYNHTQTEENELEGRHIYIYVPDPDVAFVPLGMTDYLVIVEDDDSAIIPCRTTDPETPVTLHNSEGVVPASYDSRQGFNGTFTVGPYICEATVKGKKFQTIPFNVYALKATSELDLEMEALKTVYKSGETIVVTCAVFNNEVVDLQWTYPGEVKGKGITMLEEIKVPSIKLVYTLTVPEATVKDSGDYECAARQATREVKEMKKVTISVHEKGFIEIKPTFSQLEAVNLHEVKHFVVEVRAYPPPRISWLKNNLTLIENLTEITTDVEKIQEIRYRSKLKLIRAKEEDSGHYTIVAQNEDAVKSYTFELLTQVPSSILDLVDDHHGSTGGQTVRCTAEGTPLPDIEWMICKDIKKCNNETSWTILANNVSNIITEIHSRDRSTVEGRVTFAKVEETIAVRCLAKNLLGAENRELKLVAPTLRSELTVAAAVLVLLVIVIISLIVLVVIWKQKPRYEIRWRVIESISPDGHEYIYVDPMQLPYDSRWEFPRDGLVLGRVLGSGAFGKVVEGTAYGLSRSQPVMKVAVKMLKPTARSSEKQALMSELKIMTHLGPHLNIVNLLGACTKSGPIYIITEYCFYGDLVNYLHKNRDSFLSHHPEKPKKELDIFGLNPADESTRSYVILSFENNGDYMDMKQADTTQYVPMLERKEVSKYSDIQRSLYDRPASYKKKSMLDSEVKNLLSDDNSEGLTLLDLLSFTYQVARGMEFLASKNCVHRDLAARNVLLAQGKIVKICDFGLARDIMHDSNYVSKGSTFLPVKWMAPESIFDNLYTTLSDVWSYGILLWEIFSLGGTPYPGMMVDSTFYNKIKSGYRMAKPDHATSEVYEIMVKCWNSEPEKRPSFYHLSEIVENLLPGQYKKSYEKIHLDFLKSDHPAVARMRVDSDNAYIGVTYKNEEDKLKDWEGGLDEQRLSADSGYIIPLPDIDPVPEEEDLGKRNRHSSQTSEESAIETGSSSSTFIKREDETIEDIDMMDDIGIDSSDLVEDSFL

[3] = target: FLT-4 (h) (VEGFR3) (Homo sapiens, UniProt P35916); assay: Biochemical kinase assay (CEREP); details: for IC50: 10 μM ATP, performed by CEREP
Chain of FLT-4 (h) (VEGFR3) (P35916 25-1363): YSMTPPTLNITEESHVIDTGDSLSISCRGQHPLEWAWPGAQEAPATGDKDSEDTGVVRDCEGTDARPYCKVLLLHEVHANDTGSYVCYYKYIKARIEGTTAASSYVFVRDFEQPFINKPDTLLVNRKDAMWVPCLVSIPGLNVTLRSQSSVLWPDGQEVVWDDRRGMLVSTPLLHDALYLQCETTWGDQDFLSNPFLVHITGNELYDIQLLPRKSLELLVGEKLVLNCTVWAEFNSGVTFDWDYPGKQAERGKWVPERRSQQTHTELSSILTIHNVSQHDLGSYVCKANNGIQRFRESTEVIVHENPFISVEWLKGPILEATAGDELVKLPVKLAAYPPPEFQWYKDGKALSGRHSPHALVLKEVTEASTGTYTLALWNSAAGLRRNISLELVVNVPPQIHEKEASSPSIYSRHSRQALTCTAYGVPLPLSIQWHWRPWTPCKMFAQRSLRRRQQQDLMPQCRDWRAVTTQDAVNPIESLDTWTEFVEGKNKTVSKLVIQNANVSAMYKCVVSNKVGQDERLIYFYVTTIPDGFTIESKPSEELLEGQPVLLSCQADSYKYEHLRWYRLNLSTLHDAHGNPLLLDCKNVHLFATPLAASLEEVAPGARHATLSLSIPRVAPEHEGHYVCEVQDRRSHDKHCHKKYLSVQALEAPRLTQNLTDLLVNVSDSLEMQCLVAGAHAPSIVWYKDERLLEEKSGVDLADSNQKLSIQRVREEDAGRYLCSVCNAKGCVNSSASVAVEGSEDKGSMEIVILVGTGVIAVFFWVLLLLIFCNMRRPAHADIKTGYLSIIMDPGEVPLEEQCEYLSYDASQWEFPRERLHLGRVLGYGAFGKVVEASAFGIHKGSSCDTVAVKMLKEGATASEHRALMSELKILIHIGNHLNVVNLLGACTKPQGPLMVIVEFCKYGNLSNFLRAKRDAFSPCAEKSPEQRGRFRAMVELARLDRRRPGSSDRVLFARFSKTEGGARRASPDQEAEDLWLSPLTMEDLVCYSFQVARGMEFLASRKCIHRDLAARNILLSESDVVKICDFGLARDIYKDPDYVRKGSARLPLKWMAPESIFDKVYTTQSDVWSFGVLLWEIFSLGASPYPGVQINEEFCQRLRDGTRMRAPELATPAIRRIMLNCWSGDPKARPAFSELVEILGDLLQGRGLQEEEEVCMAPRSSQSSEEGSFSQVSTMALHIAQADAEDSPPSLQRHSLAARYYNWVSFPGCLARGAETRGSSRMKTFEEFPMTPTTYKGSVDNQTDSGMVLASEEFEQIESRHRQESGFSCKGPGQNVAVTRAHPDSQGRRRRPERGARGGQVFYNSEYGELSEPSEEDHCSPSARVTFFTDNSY
Description: We tested all synthetic compounds against a panel of kinases in a biochemical assay. Each data point was measured in duplicate (technical replicates). […] Additional kinase binding studies were performed vs. a select group of functionally and structurally divergent kinases including AAK1 (Adaptor-associated protein kinase 1), BMP2K (BMP-2-inducible protein kinase, where BMP is bone morphogenic protein), GAK (Cyclin G-associated kinase) and STK16 (Serine/threonine-protein kinase 16) (Table 1).

[4] = target: STK16 (Serine/threonine-protein kinase 16) (Homo sapiens, UniProt O75716); assay: Kinase binding displacement assay; details: no ATP present
Chain of STK16 (Serine/threonine-protein kinase 16) (O75716 whole entry, species assumed): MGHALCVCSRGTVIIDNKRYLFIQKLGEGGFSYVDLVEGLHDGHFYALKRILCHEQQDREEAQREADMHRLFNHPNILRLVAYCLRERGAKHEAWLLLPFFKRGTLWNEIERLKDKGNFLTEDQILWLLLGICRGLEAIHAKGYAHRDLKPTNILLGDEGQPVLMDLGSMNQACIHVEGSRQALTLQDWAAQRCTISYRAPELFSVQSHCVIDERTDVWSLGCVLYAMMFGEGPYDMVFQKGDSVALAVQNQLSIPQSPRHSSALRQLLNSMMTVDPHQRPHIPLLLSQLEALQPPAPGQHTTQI

[5] = target: T2, GAK (Cyclin G-associated kinase) (Homo sapiens, UniProt O14976); assay: Kinase binding displacement assay; details: no ATP present
T2 sequence (O14976 1-1311): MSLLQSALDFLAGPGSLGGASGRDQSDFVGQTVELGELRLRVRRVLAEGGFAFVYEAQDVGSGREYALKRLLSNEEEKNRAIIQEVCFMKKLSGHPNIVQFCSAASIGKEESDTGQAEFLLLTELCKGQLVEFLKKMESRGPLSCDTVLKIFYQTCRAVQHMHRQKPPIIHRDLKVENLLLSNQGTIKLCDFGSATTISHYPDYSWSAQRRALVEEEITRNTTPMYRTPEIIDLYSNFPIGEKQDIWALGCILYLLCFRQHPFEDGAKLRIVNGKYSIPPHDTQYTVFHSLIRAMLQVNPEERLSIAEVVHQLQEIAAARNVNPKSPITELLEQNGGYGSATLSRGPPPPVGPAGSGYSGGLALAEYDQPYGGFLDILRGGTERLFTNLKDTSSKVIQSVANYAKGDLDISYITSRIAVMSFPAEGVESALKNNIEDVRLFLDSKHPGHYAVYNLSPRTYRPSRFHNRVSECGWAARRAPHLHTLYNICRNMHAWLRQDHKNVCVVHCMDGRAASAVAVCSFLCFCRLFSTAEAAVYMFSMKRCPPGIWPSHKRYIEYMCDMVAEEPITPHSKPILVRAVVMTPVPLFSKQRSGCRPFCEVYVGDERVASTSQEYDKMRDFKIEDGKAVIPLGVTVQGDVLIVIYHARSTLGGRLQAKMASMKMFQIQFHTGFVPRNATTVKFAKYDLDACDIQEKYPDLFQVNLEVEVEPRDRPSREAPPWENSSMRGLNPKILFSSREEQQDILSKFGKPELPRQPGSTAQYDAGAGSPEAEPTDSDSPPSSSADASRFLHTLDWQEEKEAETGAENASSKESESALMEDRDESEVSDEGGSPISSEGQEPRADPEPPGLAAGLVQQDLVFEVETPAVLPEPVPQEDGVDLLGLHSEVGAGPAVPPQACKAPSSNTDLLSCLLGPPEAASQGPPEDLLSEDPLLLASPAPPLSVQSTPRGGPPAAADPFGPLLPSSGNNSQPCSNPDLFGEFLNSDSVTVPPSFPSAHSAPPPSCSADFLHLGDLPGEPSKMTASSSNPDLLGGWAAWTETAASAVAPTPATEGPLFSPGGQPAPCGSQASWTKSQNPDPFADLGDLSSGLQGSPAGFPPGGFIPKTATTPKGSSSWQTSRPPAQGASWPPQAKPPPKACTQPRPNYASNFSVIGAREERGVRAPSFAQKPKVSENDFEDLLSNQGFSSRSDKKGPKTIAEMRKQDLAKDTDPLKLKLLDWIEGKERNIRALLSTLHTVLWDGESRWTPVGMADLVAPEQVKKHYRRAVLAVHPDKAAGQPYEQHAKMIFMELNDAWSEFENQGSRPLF

[6] = target: BMP2K (BMP-2-inducible protein kinase) (Homo sapiens, UniProt Q9NSY1); assay: Kinase binding displacement assay; details: no ATP present
Chain of BMP2K (BMP-2-inducible protein kinase) (Q9NSY1 whole entry, species assumed): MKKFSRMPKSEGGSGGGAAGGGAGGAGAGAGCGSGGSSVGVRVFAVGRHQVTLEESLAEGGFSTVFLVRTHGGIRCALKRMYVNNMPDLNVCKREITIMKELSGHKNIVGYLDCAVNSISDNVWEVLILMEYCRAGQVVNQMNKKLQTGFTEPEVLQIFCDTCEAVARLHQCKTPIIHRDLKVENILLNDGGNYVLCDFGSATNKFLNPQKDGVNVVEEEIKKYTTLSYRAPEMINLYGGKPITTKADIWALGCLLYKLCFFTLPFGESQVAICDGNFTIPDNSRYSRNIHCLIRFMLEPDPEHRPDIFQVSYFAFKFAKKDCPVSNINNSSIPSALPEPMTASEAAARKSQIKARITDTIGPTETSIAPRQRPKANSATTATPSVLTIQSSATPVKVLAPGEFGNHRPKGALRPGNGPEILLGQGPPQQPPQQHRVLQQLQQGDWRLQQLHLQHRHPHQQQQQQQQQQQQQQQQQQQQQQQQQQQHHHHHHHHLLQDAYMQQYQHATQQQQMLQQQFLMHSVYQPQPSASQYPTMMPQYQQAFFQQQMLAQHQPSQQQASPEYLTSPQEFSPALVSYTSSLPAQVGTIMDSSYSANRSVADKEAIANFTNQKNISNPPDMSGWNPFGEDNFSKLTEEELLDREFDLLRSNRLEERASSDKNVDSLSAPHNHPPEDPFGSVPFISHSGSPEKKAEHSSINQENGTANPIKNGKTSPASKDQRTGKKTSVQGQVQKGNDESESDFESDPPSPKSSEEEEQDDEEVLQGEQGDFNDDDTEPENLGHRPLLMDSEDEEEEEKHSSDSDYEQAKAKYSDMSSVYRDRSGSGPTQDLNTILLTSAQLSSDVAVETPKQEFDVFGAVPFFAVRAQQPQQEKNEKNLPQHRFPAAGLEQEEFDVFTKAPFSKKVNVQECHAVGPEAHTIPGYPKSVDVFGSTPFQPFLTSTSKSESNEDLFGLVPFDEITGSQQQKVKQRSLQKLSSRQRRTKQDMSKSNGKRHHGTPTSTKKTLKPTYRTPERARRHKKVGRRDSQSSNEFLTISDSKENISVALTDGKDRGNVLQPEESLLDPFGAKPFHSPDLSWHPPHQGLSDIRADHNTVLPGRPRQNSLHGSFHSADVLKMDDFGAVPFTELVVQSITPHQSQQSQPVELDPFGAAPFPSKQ

[7] = target: AAK1 (Adaptor-associated protein kinase 1) (Homo sapiens, UniProt Q2M2I8); assay: Kinase binding displacement assay; details: no ATP present
Chain of AAK1 (Adaptor-associated protein kinase 1) (Q2M2I8 whole entry, species assumed): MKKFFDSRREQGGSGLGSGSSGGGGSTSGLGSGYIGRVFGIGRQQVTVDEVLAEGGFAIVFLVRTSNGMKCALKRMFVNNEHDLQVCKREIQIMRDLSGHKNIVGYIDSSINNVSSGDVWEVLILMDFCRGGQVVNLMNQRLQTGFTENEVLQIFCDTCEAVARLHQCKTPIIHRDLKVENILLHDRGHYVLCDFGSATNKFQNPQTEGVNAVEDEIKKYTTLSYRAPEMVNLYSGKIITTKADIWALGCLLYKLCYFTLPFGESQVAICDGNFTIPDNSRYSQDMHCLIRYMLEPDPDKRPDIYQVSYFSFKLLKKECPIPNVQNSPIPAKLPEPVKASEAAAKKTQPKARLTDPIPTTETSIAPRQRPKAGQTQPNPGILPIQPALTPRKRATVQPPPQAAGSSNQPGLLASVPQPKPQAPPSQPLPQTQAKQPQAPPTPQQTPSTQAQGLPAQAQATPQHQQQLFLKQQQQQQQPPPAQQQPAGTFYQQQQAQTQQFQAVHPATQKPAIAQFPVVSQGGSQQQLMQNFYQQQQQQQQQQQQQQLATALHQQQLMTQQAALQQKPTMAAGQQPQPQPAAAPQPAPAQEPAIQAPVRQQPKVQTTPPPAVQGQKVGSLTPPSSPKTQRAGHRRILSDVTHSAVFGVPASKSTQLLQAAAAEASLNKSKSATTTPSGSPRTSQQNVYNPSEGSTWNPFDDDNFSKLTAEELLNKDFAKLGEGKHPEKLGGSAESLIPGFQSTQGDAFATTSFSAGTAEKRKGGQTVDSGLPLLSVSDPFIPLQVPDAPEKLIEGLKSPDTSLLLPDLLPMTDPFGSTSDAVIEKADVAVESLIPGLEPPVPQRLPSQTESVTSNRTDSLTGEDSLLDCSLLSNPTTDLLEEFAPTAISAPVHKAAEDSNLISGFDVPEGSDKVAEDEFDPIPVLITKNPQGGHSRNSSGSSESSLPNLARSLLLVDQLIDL

[8] = tested on: MCF7; assay: Cell proliferation assay; type: cell-based; details: Homo sapiens, 50% reduction in cellular proliferation vs DMSO-treated control, read-out: GC50 MCF7
From the text: (§1) The synthesized compounds were next tested in breast cancer and non-transformed breast cell lines.

[9] = tested on: T47D; assay: Cell proliferation assay; type: cell-based; details: Homo sapiens, 50% reduction in cellular proliferation vs DMSO-treated control, read-out: GC50 T47D
From the text: as §1

[10] = tested on: MCF7 and T47D breast cancer cell; assay: Cell proliferation assay (range over both lines); type: cell-based; details: range over both compounds and both cell lines; read-out: GC50 values, MCF7 and T47D (range)
From the text: as §1

Compound | inhibition of DYRK3 [1] | IC50 [1] [µM] | IC50 [2] [µM] | IC50 [3] [µM] | IC50 [4] [µM] | IC50 [5] [µM] | IC50 [6] [µM] | IC50 [7] [µM] | IC50 [8] [µM] | IC50 [9] [µM] | IC50 [10] [µM] | potency vs. PDGFRα [2] [µM] | IC50 vs. PDGFRα [2] | IC50 vs. VEGFR3 [3]
5-Pentafluorosulfanyl-3-ferrocenylindolin-2-one [Compound 12a] | low micromolar range | 1.7 | > 1 | > 1 |  |  |  |  |  |  |  |  |  | 
5-Pentafluorosulfanyl-3-ferrocenylindolin-2-one [Compound 12b] | low micromolar range | 2.4 | > 1 | > 1 |  |  |  |  |  |  |  |  |  | 
O=C1Nc2ccc(S(F)(F)(F)(F)F)cc2/C1=C/c1ccc[nH]1 [Compound 10, (Z)-3-(1H-Pyrrol-2-yl)methylene-5-pentafluorosulfanylindoline-2-one] |  | > 1 | > 1 | > 1 | 17.6 | 34.2 | 0.452 | 1 | 4.8 ± 1 | 0.49 ± 0.4 | 0.35 to 3.8 |  |  | 
O=C1Nc2cc(S(F)(F)(F)(F)F)ccc2/C1=C/c1ccc[nH]1 [Compound 11, (Z)-3-(1H-Pyrrol-2-yl)methylene-6-pentafluorosulfanylindoline-2-one] |  | > 1 | 0.098 | 0.23 | 135 | 0.476 | 187 | 1000 | 0.69 ± 0.4 | 0.35 ± 0.1 | 0.35 to 3.8 | 0.098 |  | 
Cc1[nH]c(/C=C2\C(=O)Nc3ccc(S(F)(F)(F)(F)F)cc32)c(C)c1CCC(=O)O [Compound 13, (Z)-3-(2,4-Dimethyl-5-((5-pentafluorosulfanyl-2-oxoindolin-3-ylidene)methyl)-1H-pyrrol-3-yl)propanoic acid] |  | > 1 | > 1 | 0.53 | > 1 | > 1 | > 1 | > 1 |  |  |  |  |  | 
Cc1[nH]c(/C=C2\C(=O)Nc3cc(S(F)(F)(F)(F)F)ccc32)c(C)c1CCC(=O)O [Compound 14, (Z)-3-(2,4-Dimethyl-5-((6-pentafluorosulfanyl-2-oxoindolin-3-ylidene)methyl)-1H-pyrrol-3-yl)propanoic acid] |  | > 1 | 0.0031 | 0.018 | > 1 | > 1 | > 1 | > 1 |  |  |  |  | low nM potency | low nM potency
